Like-named read-outs stand apart in the source and are kept apart here.
Legend:
[1] = system: Influenza virus A/whistling swan/Shimane/499/83 (H5N3); type: cell-based, avian influenza virus; details: for effect on the avian influenza virus (ability to inactivate): Example 10, each potassium soap diluted to 0.035 M; for infection dose of the avian influenza virus reduced to / ability to inactivate: Example 9, diluted to 0.0035 mol/L with purified water; for ability to inactivate the avian influenza virus, potassium versus sodium oleate soap: Example 4, 0.35 M oleate soap tested as in Example 2
feline calicivirus = assay: Inactivation ability against infectivity of feline calicivirus (TCID50 on CRFK cells); type: cell-based; details: for inactivation ability against the feline calicivirus, potassium versus sodium oleate soap: Example 4, 0.35 M oleate soap
[2] = Example 9, diluted to 0.0035 mol/L with purified water
[3] = Example 8, sample No. 19 versus surface-active agents other than soap (Table 4, 10.32 %)

## CCCCC/C=C\C/C=C\CCCCCCCC(=O)[O-].[K+] [C18:2 (linoleate) soap]
[1]
  effect on the avian influenza virus (ability to inactivate): excellent

## CCC=CCC=CCC=CCCCCCCCC(=O)[O-].[K+] [C18:3 (linolenate) soap]
[1]
  effect on the avian influenza virus (ability to inactivate): weak

## CCCCCCCC/C=C\CCCCCCCC(=O)N(C)CC(=O)O [oleoyl sarcosine]
Feline calicivirus
  infection dose of the feline calicivirus reduced to / ability to inactivate: could not be reduced
[1]
  infection dose of the avian influenza virus reduced to / ability to inactivate: about one-thousandth

## CCCCCCCC/C=C\CCCCCCCC(=O)[O-].[K+] [potassium oleate soap, potassium oleate]
Feline calicivirus
  inactivation ability against the feline calicivirus, potassium versus sodium oleate soap: no difference
Feline calicivirus; [2]
  infection dose of the feline calicivirus reduced to / ability to inactivate: excellent antiviral activity
[1]
  ability to inactivate the avian influenza virus, potassium versus sodium oleate soap: no difference
  infection dose of the avian influenza virus reduced to / ability to inactivate: excellent antiviral activity
  effect on the avian influenza virus (ability to inactivate): excellent

## CCCCCCCC/C=C\CCCCCCCC(=O)[O-].[Na+] [sodium oleate soap, sodium oleate]
Feline calicivirus
  inactivation ability against the feline calicivirus, potassium versus sodium oleate soap: no difference
[1]
  ability to inactivate the avian influenza virus, potassium versus sodium oleate soap: no difference

## CCCCCCCC/C=C\CCCCCCCCOS(=O)(=O)[O-].[Na+] [sodium oleyl sulfate]
Feline calicivirus
  infection dose of the feline calicivirus reduced to / ability to inactivate: one-tenth or less
[1]
  infection dose of the avian influenza virus reduced to / ability to inactivate: one-tenth or less

## Polyoxyethylene sorbitan monooleate
Feline calicivirus; [2]
  infection dose of the feline calicivirus reduced to / ability to inactivate: no ability to inactivate
[1]
  infection dose of the avian influenza virus reduced to / ability to inactivate: no ability to inactivate

## Sodium polyoxyethylene alkyl ether sulfate [compound 37]
Feline calicivirus; [3]
  virus inactivation ability / antiviral activity (feline calicivirus): low antiviral activity
[1]; [3]
  virus inactivation ability / antiviral activity (avian influenza virus): low antiviral activity
CRFK cells
  cytotoxicity: high cytotoxicity
MDCK (+) cells
  cytotoxicity: high cytotoxicity
